In patent US11304988B2, “Inhibiting tumor cell migration by inhibition of kinesin light chain 1, variant 1 (KLC1C)” (Northwestern University, priority 2018, dated 2022):
“Also recorded” adds a separate entry of the source.

Key:
[1] = tested on: A375 human melanoma cells; assay: tumor cell TEM assay, A375 melanoma cells across EC (HUVEC) monolayers; assay type: cell-based; conditions: for melanoma cell transmigration across endothelial cell monolayers, prostaglandin receptor inhibitors: HUVEC pretreated 1 hour then washed, A375 cells, inhibitor used at 10× its IC50; for melanoma cell TEM in vitro (in words): human melanoma cells across human EC monolayer
Experimental: FIG. 7. Tat-KLC1c peptide blocks tumor cell TEM. A375 human melanoma cells were allowed to transmigrate for 2 hours across EC monolayers pre-incubated (then washed extensively) with Tat-KLC1c or Tat-Scr. The 50% block in TEM is representative of at least 6 independent experiments.
FIG. 10. Platelets modestly increase melanoma cell migration through an LBRC-dependent mechanism. The tumor cell TEM assay was carried out in the presence or absence of human platelets, which were added to the tumor cells at the time of peptide addition and immediately prior to addition to the endothelial cell monolayer. Transmigration proceeded for 2 hours.
FIG. 17. […] HUVEC monolayers were pretreated with 100 nM Tat peptides or the indicated doses of PF-04418948 (EP2 inhibitor) or AAT008 (EP4 antagonist) for 1 hour then washed exten-sively before adding A375 cells. Transmigration proceeded for 2 hours.
FIG. 18. Optimal concentrations of Tat-KLC1c peptide and EP4 antagonist are not additive. Transmigration assays as in FIG. 16 with 100 μM Tat-peptides, 100 nM AAT-008, or both. Mean±S.D. of 6 replicates for each condition. * p<0.0004 vs. Scr; NS vs each other.
(§1) Tumor cells that transmigrate using the LBRC do so without destroying the endothelial cell monolayer. […] The Tat-KLC1c peptide has no effect on the ability of tumor cells to move per se (FIG. 8), nor on tumor cell viability or growth (FIG. 9).

[2] = tested on: A375M melanoma cells; assay: A375M transendothelial migration assay; assay type: cell-based, human; conditions: for lowest concentration with significant effects on tumor cell transmigration / melanoma / tumor cell transmigration with free radical scavengers and anti-oxidants (in words): A375M; for melanoma / tumor cell transmigration with free radical scavengers and anti-oxidants (in words): indicated concentrations, vs. Scr; for inhibition of melanoma cell TEM compared with Tat-KLC1c peptide: at 10 mM, vs optimal concentration of Tat-KLC1c peptide
Experimental: (§2) FIG. 16. […] Data are mean±SD of 6 replicates. *p<0.005 vs. Scr.
FIG. 19. […] A375M transendothelial migration assays were carried out in the presence of Tat-peptides or the indicated concentrations of Trolox or N-acetylcysteine. Data are mean±SD of ≥3 replicates for each condition. *p<0.01 for all inhibitors vs. Scr.

[3] = tested on: PMN; assay: croton oil acute dermatitis of ear skin, PMN transmigration; assay type: in vivo, mouse; conditions: i.v. to achieve 0.1 μM in blood, one hour before croton oil; ear skin examined six hours later
Experimental: FIG. 5. TAT-KLC1c blocks TEM in vivo. Mice received TAT-Scr or TAT-KLC1c i.v. at a concentration to achieve 0.1 μM in blood. One hour later, croton oil was applied to mouse ear skin to induce acute dermatitis. Six hours later mice were sacrificed and ear skin examined in whole mount by confocal microscopy. Representative images are shown. In mice receiving Tat-Scr, a mean of 70% of PMN exited the vessels, while in mice receiving Tat-KLC1c, transmigration was decreased to 12%.

[4] = tested on: neutrophils; assay: intravital confocal microscopy of neutrophil transmigration in IL-1β-inflamed cremaster muscle; assay type: in vivo; conditions: anesthetized mouse; for neutrophil extravasation (cumulative transmigration): postcapillary venules, response to IL-1β, after injection of peptide
Text: FIG. 4. TAT-KLC1c blocks TEM in vivo. In the inflamed cremaster muscle of an anesthetized mouse, fluorescent neutrophils were observed by intravital spinning disc confocal microscopy to transmigrate steadily from postcapillary venules in response to IL-1β.

[5] = tested on: B16F10 melanoma cells; assay: melanoma cell extravasation in lung in vivo after tail vein injection; design: species or system mouse; conditions: for visualized tumor cells that had transmigrated: C57Bl/6 mice, peptide 1 hour prior to CFSE-labeled B16F10 via tail vein, sacrificed six hours later
Experimental: FIG. 11. Visualizing melanoma cell extravasation in vivo. Single XY plane from confocal image of CFSE-labeled B16F10 cells in Tat-Scr treated mouse lung 6 hr. after i.v. injection of 10^6 tumor cells. Two tumor cells (arrows) have migrated out of vasculature while another one (arrowhead) remains inside the vessel.
FIG. 12. […] Quantification of block by Tat-KLC1c (Mean±S.D) * p<0.01.
C57Bl/6 mice received KLC1c or scrambled peptide 1 hour prior to receiving carboxyfluorescein (CFSE)-labeled B16F10 melanoma cells via tail vein. They were sacrificed six hours later so that data would reflect the effects on extravasation per se rather than survival or growth (Ref. B10; herein incorporated by reference in its entirety). Immediately prior to sacrifice a fluorescent anti-PECAM antibody was injected i.v. to stain vasculature. Lungs were inflated with 4% paraformaldehyde (PFA) and fixed overnight in PFA, then cryopreserved in sucrose. 100 μm thick frozen sections were cut and examined by spinning disc confocal microscopy with images taken every 1 μm of specimen depth. 30% of visualized tumor cells had transmigrated in the mice receiving scrambled peptide, whereas only ˜9% had transmigrated in mice receiving Tat-KLC1c peptide—a 70% reduction (FIGS. 11,12). […] In a separate experiment, age- and sex-matched C57Bl/6 mice syngeneic to the tumor were randomized to receive Tat-Scr or Tat-KLC1c parenterally at a concentration calculated to achieve 0.1 μM in vivo 1 h. before and 18 h. after receiving 1×10^6 syngeneic B16F10 melanoma cells in 100 μl via tail vein. Lung metastases were enumerated 14 days later under a dissecting microscope. The Tat-KLC1c group had over 90% fewer (FIG. 13, p=0.00204). […] Even though Tat-KLC1c blocks about ⅓ (in vitro) to ⅔ (in vivo) of melanoma extravasation events, the number of metastatic colonies that grow out are disproportionately lower.

[6] = tested on: B16F10 melanoma cells; assay: growth of B16F10 melanoma cells in culture over two weeks; assay type: cell-based, mouse; conditions: 100 nM peptide, two-week period
Experimental: FIG. 9. […] Melanoma cells were plated at a density of 1×10^5/ml on 80 mm plates with 100 nM Tat-Scr or Tat-KLC1c. Cells were trypsinized and counted on the indicated days, diluted and 4×10^6 viable cells re-plated in fresh peptide. Total cells in the culture are shown.

[7] = tested on: A375 human melanoma cells; assay: Transwell filter migration of tumor cells toward serum-containing medium (A375); assay type: cell-based; conditions: 100 nM peptide, 12 hours, 8 μM pore size Transwell
Experimental: (§3) FIG. 8. […] 1×10^4 A375 human melanoma cells or 1×10^4 B16F10 melanoma cells were resuspended in serum-free medium and placed in the upper chamber of Transwell filters ([…]) and allowed to migrate in response to serum-containing medium in the bottom chamber in the presence of 100 nM Tat-Scr, Tat-KLC1c or no additives. The total number of tumor cells in the bottom well 12 hours later was enumerated. Data are mean±S.D. for four replicates of each sample.

[8] = tested on: B16F10 melanoma cells; assay: lung metastatic colony formation after tail vein injection of B16F10 cells; assay type: in vivo, mouse
Experimental: Age- and sex-matched C57Bl/6 mice were injected with Tat-Scr (Scr) or Tat-KLC1c (KLC1c) 1 hr before and 18 hr after injection of 10^6 B16F10 melanoma cells via tail vein. 14 days later lungs were inflated with formalin, and metastases counted. (A) Representative gross photos of lungs from mice that received Tat-Scr (top) and Tat-KLC1c (bottom). Arrows point to some of the metastases. (B) Graphical representation of results. Dots are values for individual mice. (TNTC)=too numerous to count. Lines show mean±S.D., p=0.00204 by ANOVA not including the TNTC data.
C57Bl/6 mice received KLC1c or scrambled peptide 1 hour prior to receiving carboxyfluorescein (CFSE)-labeled B16F10 melanoma cells via tail vein. They were sacrificed six hours later so that data would reflect the effects on extravasation per se rather than survival or growth (Ref. B10; herein incorporated by reference in its entirety). Immediately prior to sacrifice a fluorescent anti-PECAM antibody was injected i.v. to stain vasculature. […] In a separate experiment, age- and sex-matched C57Bl/6 mice syngeneic to the tumor were randomized to receive Tat-Scr or Tat-KLC1c parenterally at a concentration calculated to achieve 0.1 μM in vivo 1 h. before and 18 h. after receiving 1×10^6 syngeneic B16F10 melanoma cells in 100 μl via tail vein. […]

[9] = tested on: Human umbilical vein endothelial cells; assay: in vitro transendothelial migration (TEM) of human monocytes across endothelial cell monolayers; assay type: cell-based; conditions: endothelial cells incubated 30 minutes with 0.01 μM or 0.1 μM peptide, washed, one hour with human monocytes; compared to untreated
Experimental: FIG. 3. Blocking Kinesin Light Chain 1c function via TAT-KLC1c peptide inhibits transmigration. Human umbilical vein endothelial cells. Endothelial cells were incubated for 30 minutes with either 0 μM (untreated), 0.01 μM, or 0.1 μM TAT-KLC1c peptide (or scrambled TAT-peptide) at 37° C., then washed prior to a one hour incubation with human monocytes. The cells were then washed, fixed, and the percentage of cells transmigrated (% TEM) was quantified. […] Data shown are mean±SEM for 3 experiments. * p<0.01 compared to untreated.
as §2, §1

[10] = tested on: B16F10 melanoma cells; assay: Transwell filter migration of tumor cells toward serum-containing medium (B16F10); assay type: cell-based, mouse; conditions: 100 nM peptide, 12 hours, 8 μM pore size Transwell
Experimental: as §3

Compound: C[C@H](NC(=O)c1cc(Cl)cnc1Oc1cccc(F)c1)c1ccc(C(=O)O)cc1 [AAT-008, reference compound]
- melanoma cell transmigration across endothelial cell monolayers, prostaglandin receptor inhibitors ([1]; 2 hours): block melanoma cell transmigration
- melanoma cell transmigration across endothelial cell monolayers, prostaglandin receptor inhibitors ([1]; 2 hours, listed as AAT008): blocks melanoma transmigration
- block to melanoma cell transmigration compared with Tat-KLC1c ([1]; vs Tat-KLC1c at its optimal concentration): as effective as using Tat-KLC1c at its optimal concentration

Compound: CC(=O)N[C@@H](CS)C(=O)O [N-acetylcysteine]
- lowest concentration with significant effects on tumor cell transmigration [2]: 100 µM
- melanoma / tumor cell transmigration with free radical scavengers and anti-oxidants (in words) [2]: reduces tumor cell transmigration in a dose-dependent manner; also recorded: inhibit melanoma transmigration
- inhibition of melanoma cell TEM compared with Tat-KLC1c peptide [2]: as effectively as the optimal concentration of Tat-KLC1c peptide

Compound: Cc1c(C)c2c(c(C)c1O)CCC(C)(C(=O)O)O2 (stereo not shown) [Trolox, 6-hydroxy-2,5,7,8-tetramethylchroman-2-carboxylic acid]
- lowest concentration with significant effects on tumor cell transmigration [2]: 100 µM
- melanoma / tumor cell transmigration with free radical scavengers and anti-oxidants (in words) [2]: reduces tumor cell transmigration in a dose-dependent manner; also recorded: inhibit melanoma transmigration
- inhibition of melanoma cell TEM compared with Tat-KLC1c peptide [2]: as effectively as the optimal concentration of Tat-KLC1c peptide

Compound: Tat-KLC1c: 11-amino acid basic region from HIV Tat protein, glycine tripeptide linker, C-terminal decapeptide of KLC1c (MRKMKLGLVN); SEQ ID NO: 8 (YGRKKRRQRRRGGGMRKMKLGLVN)
- mean PMN exited the vessels (transmigration) [3]: 12%
- time after injection until cumulative transmigration began to plateau ([4]; IL-1β-inflamed cremaster): ≤ 10 min
- neutrophil extravasation (cumulative transmigration) [4]: markedly inhibited
- visualized tumor cells that had transmigrated ([5]; lung): ~9%
- melanoma extravasation (in words) ([5]; FIG. 12 quantification): blocks melanoma extravasation
- reduction of transmigrated tumor cells ([5]; Tat-KLC1c vs scrambled peptide, six hours, lung): 70%
- melanoma extravasation events blocked (in vivo) ([5]; in vivo): ⅔
- tumor cell viability or growth (total cells in the culture) [6]: no effect; also recorded: does not affect growth
- tumor cell migration, total number of tumor cells in the bottom well [7]: no direct effect
- fewer lung metastases than Tat-Scr group ([8]; 0.1 μM in vivo, 1 h before and 18 h after 1×10^6 B16F10 cells via tail vein, 14 days later): over 90%
- metastatic colony formation (in words) ([8]; C57Bl/6 mice, B16F10, 14 days): significantly blocked the establishment of metastatic colonies; also recorded: prevents metastatic colony formation
- block in TEM ([1]; EC monolayers pre-incubated with peptide then washed, 2 hours, vs Tat-Scr, representative of at least 6 experiments): 50%
- reduction of tumor cell TEM ([1]; FIG. 10 experiment, without platelets, 2 hours, vs. scr): 33%
- melanoma cell TEM in vitro (in words) [1]: significantly blocks
- additional TEM in the presence of platelets ([1]; human platelets added to tumor cells, 2 hours): blocked; also recorded: down to the same level
- melanoma extravasation events blocked (in vitro) ([1]; in vitro): about ⅓
- percentage of cells transmigrated (% TEM) [9]: significantly decreased TEM
- tumor cell migration, total number of tumor cells in the bottom well [10]: no direct effect

Compound: Tat-Scr: negative control peptide contains the same ten amino acids in a random order (scrambled, Scr); SEQ ID NO: 9 (YGRKKRRQRRRGGGGKLNKMVMLR) [reference compound]
- mean PMN exited the vessels (transmigration) [3]: 70%
- neutrophil extravasation (cumulative transmigration) [4]: no effect
- visualized tumor cells that had transmigrated ([5]; lung): 30%
- tumor cell migration, total number of tumor cells in the bottom well [7]: no significant differences
- melanoma cell TEM in vitro (in words) [1]: no effect
- percentage of cells transmigrated (% TEM) [9]: not
- tumor cell migration, total number of tumor cells in the bottom well [10]: no significant differences
